One assay concerns Mia PaCa-2 cells. Description: Mesenchymal/epithelial markers by ICC. It is filed as cell-based, human. The conditions noted are these: warfarin, in vitro. As for the experimental part:
FIGS. 31A-B. Maintenance of mesenchymal phenotype is Axl dependent and inhibited by warfarin. (FIGS. 31A-B) Mia PaCa-2 cells were grown in 1% serum containing media the absence (Control) or presence of warfarin (2 μM) overnight. Cells were assessed for expression of phosphorylated Axl, nuclear Zeb1 (FIG. 31A) and vimentin and E-cadherin (FIG. 31B) by ICC. […] (FIG. 31B) Representative images of Vimentin and E-Cadherin expression are shown, total magnification 400×. Images were analyzed using Elements software. Welch's t-test*, p<0.05; **, p<0.01 vs control.
Signaling and functional assays. Cells were grown to confluence in […] or 4 well chamber slides and treated overnight with low serum (1-2%) media+/−warfarin (2 μM) or 10C9 (1.1 μM, 168 μg/ml) overnight. Cells were subsequently analyzed by western blot or immunocytochemsitry (ICC).

For another assay, the system named is cell migration. Description: Scratch migration assay. The assay is classed as cell-based. The conditions noted are these: warfarin 2 μM, 16 hrs. How it is done:
(§1) (FIG. 24A) HEK293 cells engineered to stably express recombinant Gas6 were grown in the presence of Vitamin K or Vitamin K+warfarin. Gas6 levels and γ-carboxylation were assayed by immunoblotting conditioned media. Conditioned media from untransfected HEK293 cells was used as a negative control. (FIG. 24B) Panc1 cells were grown overnight in media with 1% serum with no additions (NT), warfarin (2 μM) or BGB324 (2 μM). Lysates were probed for total Axl (tAxl) and phosphorylated Axl (pAxl). (FIG. 24C) Panc1 cells were grown in the presence of control media, Vitamin K, warfarin or warfarin+Vitamin K. The level of phosphorylated Axl (pAXL, red) was determined by immunofluorescence. (FIG. 24D) Panc1 cells were grown overnight in media with 1% serum with no additions (control), warfarin (1 μM), Gas6 (1.3 nM) or Gas6+warfarin. Lysates were probed for phosphorylated Akt (pAkt) and actin. (FIG. 24E) Lysates from Panc1 tumors harvested from mice treated with control or warfarin were probed for expression of tAxl, pAxl, actin, pAKT, tAKT, and cleaved Parp. (FIG. 24F) The effect of warfarin on cell migration was assessed by a ‘scratch’ assay. Monolayers of the indicted cells were wounded with a pipet tip. The cells were incubated in media containing 2% serum+/−warfarin (2 μM) or media containing 2% serum+Gas6 (1.3 nM)+/−warfarin.

The next assay concerns primary PDA cells. Description: Rgs16::GFP PDA primary cell culture, live cell counts after 24 hr drug treatment. It is filed as cell-based, mouse. The conditions noted are these: 24 hr, gemcitabine 10 μM, BGB324 or warfarin 1 or 10 μM. How it is done: Cell proliferation counts of primary PDA culture after 24 hr treatment with (FIG. 20A) gemcitabine (purple round); (FIG. 20B) BGB324 (green round); (FIG. 20C) warfarin (blue round); or (FIG. 20D) BGB324 with warfarin (green or blue round) at the indicated concentrations. PDA primary cells were plated at equal density (black open circle) at the start. Next day, cells were treated with drugs (D, red font) for 24 hr (red line). Approximate cell number at the start of drug treatment was obtained from another plate with equal density (red open circle). At the end of treatment, cells in each group were counted and subsequent passages started with cells plated at equal density (grey asterisk). Drug treated groups were allowed to grow without drug selection thereafter. Control cells (Ctrl) on separate plates were grown without drug and counted at the end of each passage (black open circle). PDA live cell numbers were obtained via counts using a hemocytometer after 2% Trypan blue staining to distinguish between living and dead cells under an inverted microscope with 10× objective. Statistical significances are based on comparison of drug-treated cell counts to Ctrl. […] Statistical analyses were obtained by comparing counts of drug-treated cells to Ctrl via unpaired and two-tailed Student's t-test. *, p<0.05; **, p<0.01; ***, p<0.001; ****, p<0.0001. Asterisks match the color of the comparison group.
Rgs16::GFP PDA primary cell culture. Primary Rgs16::GFP PDA cells were harvested from 6-week-old KIC mice. Cells were grown in 25 mM Glucose DMEM (HyClone) with 10% FBS (Serum Source International), penicillin and streptomycin (Life Technologies) on rat tail collagen typel (BD Biosciences) coated plates (0.5 μg/cm^2) in a humidified incubator at 37° C. and 5% CO2. Cells reaching confluency were washed twice with PBS (HyClone) and lifted with 0.05% Trypsin-EDTA (HyClone) treatment up to 10 min in the incubator. For drug tests in FIGS. 20A-D, primary PDA cells were incubated with gemcitabine (10 μM dissolved in PBS), warfarin (1 μM or 10 μM dissolved in water), BGB324 (1 μM or 10 μM dissolved in DMSO) or warfarin and BGB324 together for 24 hrs in 37° C. incubator. PDA live cell numbers were obtained via counts using a hemocytometer following 2% trypan blue staining to distinguish dead cells under an inverted microscope.

The target in assay [1] is vitamin K epoxide reductase (Homo sapiens, UniProt Q9BQB6). The conditions noted are these: cited from earlier work.
Sequence of vitamin K epoxide reductase (Q9BQB6 whole entry): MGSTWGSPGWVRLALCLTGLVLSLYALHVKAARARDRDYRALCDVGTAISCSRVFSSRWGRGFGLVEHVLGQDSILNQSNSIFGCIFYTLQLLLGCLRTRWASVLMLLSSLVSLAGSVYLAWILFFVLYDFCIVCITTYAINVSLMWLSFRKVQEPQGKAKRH
In the next assay the test system is Gas6. Description: Gas6 γ-carboxylation in conditioned media of HEK293 cells expressing recombinant Gas6 (immunoblot). The assay is classed as cell-based. The conditions noted are these: Vitamin K + warfarin, in vitro. How it is done:
as §1
For orientation: In western blotting, separated proteins are transferred to a membrane and probed.

The next assay has as its system Capan-EMT cells. The assay is described as follows: Capan-EMT cells (Capan-1 on collagen with TGFβ), ICC. The conditions noted are these: SFM overnight. The assay is classed as cell-based, human. As for the experimental part: FIGS. 32A-C. Acquisition of Axl expression sensitizes Capan-EMT cells to warfarin. (FIG. 32A) Capan-1 cells cultured on collagen were analyzed by flow cytometry for Axl expression. The positive gate was set using a control IgG and 10C9 was used to detect Axl. […] (FIG. 32B) Capan-EMT cells were cultured in SFM overnight in the absence (control) or presence of warfarin and expression Axl, E-Cadherin, and cleaved caspase 3 was determined by ICC. Representative images are shown. (FIG. 32C) The expression Zeb1, Snail, and Twist was determined by qPCR in Capan-1 and Capan-EMT cells.
In vitro epithelial to mesenchymal transition assays. In vitro, mesenchymal transition was induced by incubating cells on chamber slides coated with collagen and adding TGF-β (20 ng/ml) to media with 5% serum for 48 hours. Media was then replaced with 1% serum and fresh TGF-β with or without warfarin (2 μM) for an additional 48 hours. Cells were the evaluated by immunocytochemistry by fixing in acetone, permeabilizing with 0.5% Brij, and incubating overnight with primary antibody: Axl, p-Axl, (R&D Systems); Vimentin (phosphoSolutions); Zeb1, E-Cadherin, and β-Catenin (Santa Cruz). The effect of Gas6 signaling on EMT was evaluated by seeding cells overnight and incubating with Gas6 (100 ng/ml) with or without warfarin for 48 hours. Cells were evaluated by ICC as described.

`CC(=O)CC(c1ccccc1)c1c(O)c2ccccc2oc1=O` (racemic) [Warfarin]: in the assay on Mia PaCa-2 cells, the “expression of the epithelial marker E-cadherin” value was “elevating”; the “pAxl levels, surface Axl expression, Zeb1 and vimentin” value was “reduced”. The “basal and Gas6-induced cell migration (% wound closure)” value in the assay on cell migration is given as “reduced”. In addition, the “effect on cell viability and proliferation” value in the assay with primary PDA cells is given as “little or no effect on cell growth”. The “effect on cell viability and proliferation” value with primary PDA cells (listed as warfarin) is reported as “no effect”. Further, the “duration of action of a single dose” value in assay [1] was 2 to 5 days. Besides, the “γ-carboxylation of Gas6” value with Gas6 is “prevented”. Moreover, the “sensitivity to warfarin (Axl, E-cadherin, cleaved caspase-3)” value in the assay on Capan-EMT cells is listed as “sensitive”.

(Values after US9986723B2, “Screen and use of therapeutics for pancreatic ductal adenocarcinoma” (The Board of Regents of the University of Texas System, priority 2014, dated 2018).)
